Source: paper PMC4957076, “Shared mechanism of teratogenicity of anti-angiogenic drugs identified in the chicken embryo model” (Scientific Reports, 2016)

How the values were obtained:
[1] = tested on: developing limb bud of chicken embryos; assay: Drug-soaked filter paper square placed on the developing limb bud of chicken embryos; format: in vivo; settings: filter paper square soaked in drug, HH St 18–20
From the text: Given the potency of these drugs and the resulting embryonic lethality we focused our attention on how the drugs affect limb development. The developing limb bud is a well studied morphological assay[22][41][42] ideal for understanding mechanisms of embryogenesis and how drugs influence this process. Moreover, other anti-angiogenic drugs like thalidomide and valproate cause limb defects. […] We therefore established a method where a small filter paper square soaked in the drug of interest could be placed directly onto the limb tissue of the embryo, thus avoiding or minimalizing exposure of the drug to other developing tissue/structures and retaining high viability. Filter paper squares were soaked for 10 minutes prior to removal of the embryonic membrane of HH St 18–20 (E2.5-E3) chicken embryos, then placed over the developing limb bud. Filter paper squares soaked in 0.1% DMSO had no effect on limb outgrowth.
The tissue was then cleared in methyl salicylate.

chicken embryos = tested on: chicken embryos
Method: We then administered the compounds to developing chicken embryos to observe any teratogenic effects. […] At 48 hours post drug application both the survival rate and the incidence of defects were analyzed. A range of concentrations was tested to determine the effects and optimal concentration that was not 100% lethal.
Fertilized white leghorn chicken embryos purchased from Henry Stewart Ltd. (Herefordshire, United Kingdom) were maintained in an incubator as described previously. At Hamburger and Hamilton stage 18–20 (E2.5-3)[54] the eggs were windowed and the embryos were prepared for drug exposure. To establish a dose response the drugs were applied once to the embryos and growth was monitored as described previously. In a second set of experiments, filter paper squares were cut 100 μm × 100 μm and soaked in the compound of interest for 10 minutes. While the filter paper squares absorbed the solution, embryonic membranes were removed and the sponge was then placed onto the limb bud. The eggs were sealed with tape and returned to an incubator. The embryos were checked daily for developmental defects and to ensure the filter paper squares remained in place. Control embryos were treated with 100 μL PBS with 0.1% DMSO. Embryos were removed from the eggs and fixed in 5% TCA at 4 degrees for 24 hours. Embryos were then washed in alcian blue for 8 hours, and placed in acid ethanol over night before being dehydrated in 100% ethanol for three one hour treatments. The tissue was then cleared in methyl salicylate. Cartilage was imaged and subsequently measured using a graticule scale and ImageJ. A minimum of 8 embryos was used per drug, per concentration. All animal work was licensed and carried out in accordance with and with approval of UK Home Office and Institutional ethical and welfare guidelines.

Mouse = settings: cited from earlier work
HUVEC cells = assay: Endothelial cell proliferation assay (CCK-8); format: cell-based, Human; settings: Homo sapiens, 18 hours exposure, CCK-8 assay, n = 9
Method: Anti-angiogenic drugs were screened in a concentration gradient in the HUVEC culture assay. […] Cell proliferation was assessed using a CCK-8 assay (Dojindo). Statistical analysis by two-way Anova. Error represents the standard error of the mean.
HUVEC cells were purchased from ATCC (Manassas, VA) and cultured as previously described. No further authentication was performed. Cells were seeded at 6.5 × 10^4 cells per well in 100 μL of medium per well. Drugs were diluted in prewarmed DMEM. Serial dilutions were performed from 1000–0.1 nM. The cells were left to grow for 18 hours with exposure to vehicle control (DMSO) or drugs. Experiments were done in triplicate each time. Cellular proliferation was assessed using a CCK-8 assay (Dojindo, Rockville, MD). All plates were read at 450 nm.

[2] = human; cited from earlier work
[3] = tested on: fli1:EGFP zebrafish embryos; assay: fli1:EGFP zebrafish embryo exposure: survival and intersegmental vessel development; format: in vivo
Method: We then examined the extent and nature of the anti-angiogenic effects of the compounds using transgenic fli1:EGFP zebrafish embryos. The vasculature of these fish is tagged with EGFP and the transparency of the zebrafish allows for visualization of the forming blood vessels and any effect of anti-cancer drugs on their development over time (Fig. 4). A known anti-angiogenic and teratogenic compound (CPS49) was screened alongside the drugs as a positive control at 10 μg/mL (30 μM), a previously established anti-angiogenic concentration.
fli1:EGFP zebrafish were obtained from the Zebrafish international Resource Centre[29] and maintained in an approved aquarium habitat at 28 °C. At 24 hours post fertilization (hpf) the embryos were checked for GFP expression using a fluorescent microscope and manually dechorionated with forceps, exposed to either a vehicle control, or an anti-angiogenic anti-cancer compound (at 24 hpf) for 24 hours and imaged at 48 hpf. At this point the embryos were anaesthetized in 0.1% tricaine and the length and number of intersegmental vessels (ISV) were quantified as previously described. A minimum of 10 embryos were screened per drug, per concentration, and experiments were performed in triplicate.

SMILES: CO[C@@H]1[C@H](OC(=O)NC(=O)CCl)CC[C@]2(CO2)[C@H]1[C@@]1(C)O[C@@H]1CC=C(C)C [TNP-470]
- effect on limb after direct application to limb bud [1]: Tissue was necrotic-looking
- Defects produced in chicken embryos (chicken embryos; Table 1 summary): Embryolethality, cranial hemorrhaging, micropthalmia, limb defects, spine
- defects observed in treated embryos (chicken embryos; global treatment, surviving embryos): twisting of the spinal cord
- Defects produced (Mouse; Mouse/Mice): Complete failure of embryonic growth
- Systemic exposure (AUC) compared to human exposure (Mouse; Mouse/Mice): Below human
- effect during pregnancy in mouse models (Mouse): anti-angiogenic, disrupting newly developing blood vessels in the placenta and embryonic eye
- IC50 (HUVEC cells): < 10 nM
- Clinical Toxicities [2]: Neurotoxicity
- treated zebrafish killed ([3]; 200 μg/mL): 90%
- vessel outgrowth ([3]; 200 μg/mL): reducing vessel outgrowth
- effect at low doses ([3]; <200 μg/mL): little effect
- relative potency in reducing vessel outgrowth ([3]; concentration gradient, within 24 hours of drug exposure): no effect until 200 μg/mL
